Experimental data: paper PMC10065799, “High-throughput profiling of sequence recognition by tyrosine kinases and SH2 domains using bacterial peptide display” (eLife, 2023)

How the values were obtained:
Fer kinase domain = test: pTyr-Var library bacterial peptide display kinase screen (enrichment scores); type: biochemical, mouse;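 as to Fer hit?: Hit requires p below 0.05 and at least twofold variant vs reference change plus filters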
Fyn kinase domain = test: as above; type: biochemical, human
Grb2 SH2 domain = test: pTyr-Var library SH2 domain screen with SH2-dynabeads (enrichment scores)
Jak2 = test: pTyr-Var library bacterial peptide display kinase screen (enrichment scores); type: biochemical, human
AncSZ kinase domain = test: as above; type: biochemical
EPHB1 kinase domain = test: as above; type: biochemical, human
FGFR1 kinase domain = test: as above; type: biochemical, human
Hck kinase domain = test: as above; type: biochemical, human
MERTK kinase domain = test: as above; type: biochemical, human
c-Src SH2 domain = c-Src SH2 domain (Homo sapiens, UniProt P12931); test: pTyr-Var library SH2 domain screen with SH2-dynabeads (enrichment scores); conditions: sheet c-Src
SHP2 C-SH2 domain = test: as above
c-Abl kinase domain = molecular target: T1, c-Abl kinase domain (Mus musculus, UniProt P00520); test: pTyr-Var library bacterial peptide display kinase screen (enrichment scores); type: biochemical;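 as to c-Abl hit?: Hit requires p below 0.05 and at least twofold variant vs reference change plus filters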
T1 sequence (P00520 242-493 limits assumed): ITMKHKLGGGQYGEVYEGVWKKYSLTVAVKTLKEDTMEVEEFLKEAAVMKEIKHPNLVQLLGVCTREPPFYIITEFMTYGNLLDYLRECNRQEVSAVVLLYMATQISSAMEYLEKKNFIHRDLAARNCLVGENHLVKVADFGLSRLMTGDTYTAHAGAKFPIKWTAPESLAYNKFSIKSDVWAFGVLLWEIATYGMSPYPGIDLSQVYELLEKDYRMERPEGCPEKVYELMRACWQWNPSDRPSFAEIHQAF

c-Src kinase domain = c-Src kinase domain (Homo sapiens, UniProt P12931); test: as above; type: biochemical
Fes = test: as above; type: biochemical
[1] = tested on: 4G10 Platinum pan-phosphotyrosine antibody; test: Phosphorylated pTyr-Var library selection with biotinylated pan-phosphotyrosine antibody; type: binding, mouse; conditions: enrichment score, sheet SH2-vs-peptide
FGFR3 kinase domain = test: pTyr-Var library bacterial peptide display kinase screen (enrichment scores); type: biochemical, human
EPHB2 kinase domain = test: as above; type: biochemical, human
[2] = mean of log2 of enrichment over R1-R4
[3] = pTyr-Var library, enrichment score, replicate 1
[4] = pTyr-Var library, enrichment score, replicate 3
[5] = pTyr-Var library, enrichment score, replicate 4
[6] = variant versus reference peptide
[7] = variant versus reference peptide, significant hit TRUE/FALSE
[8] = mean of log2(variant) minus mean of log2(reference)
[9] = mean of log2 enrichment of variant peptide, n = 4
[10] = pTyr-Var library, variant peptide enrichment, mean of n = 4
[11] = mean of log2 enrichment of variant peptide, n = 5
[12] = pTyr-Var library, variant peptide enrichment, mean of n = 5
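For AncSZ hit? in this document: Hit requires p below 0.05 and at least twofold variant vs reference change plus filters.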
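For Fyn hit? in this document: Hit requires p below 0.05 and at least twofold variant vs reference change plus filters.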

## ATVQNYLPKCI [A2M_Y817_L815Q]
Fer kinase domain; [2]
  Fer mean of log2(enrichment): -1.311
Fer kinase domain; [3]
  Fer enrich. R1: 0.4446
Fer kinase domain; [4]
  Fer enrich. R3: 0.4557
Fer kinase domain; [5]
  Fer enrich. R4: 0.3278
Fer kinase domain; [6]
  Fer difference (mean log2 variant - mean log2 reference): -0.03599
Fer kinase domain; [7]
  Fer hit?: FALSE
Fyn kinase domain; [2]
  Fyn mean of log2(enrichment): -1.466
Fyn kinase domain; [3]
  Fyn enrich. R1: 0.4872
Fyn kinase domain; [4]
  Fyn enrich. R3: 0.3635
Fyn kinase domain; [5]
  Fyn enrich. R4: 0.2869
Fyn kinase domain; [6]
  Fyn difference (mean log2 variant - mean log2 reference): -0.247
Fyn kinase domain; [7]
  Fyn hit?: FALSE
Grb2 SH2 domain; Grb2 SH2, mean of log2(variant) minus mean of log2(reference)
  difference: -0.167
Grb2 SH2 domain; Grb2 SH2, mean of log2 enrichment of variant, R1-R3
  mean of log2(variant): -0.3239
Grb2 SH2 domain; Grb2 SH2, variant versus reference significant hit call
  hit?: FALSE
Grb2 SH2 domain; variant peptide enrichment score, Grb2 SH2, mean of R1-R3
  var. mean: 0.8266
Jak2; mean of log2 of enrichment over R1-R3
  Jak2 mean of log2(enrichment): -0.5861
Jak2; [3]
  Jak2 enrich. R1: 0.5921
Jak2; [4]
  Jak2 enrich. R3: 0.5314
Jak2; [6]
  Jak2 difference (mean log2 variant - mean log2 reference): -0.3549
Jak2; [7]
  Jak2 hit?: FALSE
AncSZ kinase domain; mean of log2 of enrichment over R1-R5
  AncSZ mean of log2(enrichment): -0.7038
AncSZ kinase domain; [3]
  AncSZ enrich. R1: 0.6587
AncSZ kinase domain; [4]
  AncSZ enrich. R3: 0.7943
AncSZ kinase domain; [5]
  AncSZ enrich. R4: 0.5045
AncSZ kinase domain; pTyr-Var library, enrichment score, replicate 5
  AncSZ enrich. R5: 0.4741
AncSZ kinase domain; [6]
  AncSZ difference (mean log2 variant - mean log2 reference): -0.2377
AncSZ kinase domain; [7]
  AncSZ hit?: FALSE
EPHB1 kinase domain; [8]
  difference: -0.7634
EPHB1 kinase domain; [9]
  mean of log2(variant): -1.369
EPHB1 kinase domain; [10]
  var. mean: 0.3903
FGFR1 kinase domain; [8]
  difference: -0.151
FGFR1 kinase domain; [11]
  mean of log2(variant): -1.149
FGFR1 kinase domain; [12]
  var. mean: 0.4624
Hck kinase domain; mean of log2(variant) / mean of log2(reference), R1-R4
  Hck mean of log2(enrichment): 0.3462
Hck kinase domain; [3]
  Hck enrich. R1: 0.3734
Hck kinase domain; [4]
  Hck enrich. R3: 0.3895
Hck kinase domain; [5]
  Hck enrich. R4: 0.2207
Hck kinase domain; [6]
  Hck difference (variant - reference): -0.2528
Hck kinase domain; [7]
  Hck hit?: FALSE
MERTK kinase domain; [8]
  difference: -0.01109
MERTK kinase domain; [9]
  mean of log2(variant): -1.438
MERTK kinase domain; [10]
  var. mean: 0.3721
c-Src SH2 domain; [8]
  difference: -0.03544
c-Src SH2 domain; mean of log2 enrichment of variant peptide, R1-R3
  mean of log2(variant): -1.014
c-Src SH2 domain; variant peptide, mean of R1-R3
  var. mean: 0.4965
SHP2 C-SH2 domain; SHP2-C SH2, mean of log2(variant) minus mean of log2(reference)
  difference: -0.37
SHP2 C-SH2 domain; SHP2-C SH2, mean of log2 enrichment of variant, R1-R3
  mean of log2(variant): -0.8263
SHP2 C-SH2 domain; SHP2-C SH2, variant versus reference significant hit call
  hit?: FALSE
SHP2 C-SH2 domain; variant peptide enrichment score, SHP2-C SH2, mean of R1-R3
  var. mean: 0.5806
c-Abl kinase domain; [2]
  c-Abl mean of log2(enrichment): -0.576
c-Abl kinase domain; [3]
  c-Abl enrich. R1: 0.4837
c-Abl kinase domain; [4]
  c-Abl enrich. R3: 0.713
c-Abl kinase domain; [5]
  c-Abl enrich. R4: 0.6552
c-Abl kinase domain; [7]
  c-Abl hit?: FALSE
c-Src kinase domain; [2]
  c-Src mean of log2(enrichment): -1.474
c-Src kinase domain; [3]
  c-Src enrich. R1: 0.3685
c-Src kinase domain; [4]
  c-Src enrich. R3: 0.3322
c-Src kinase domain; [5]
  c-Src enrich. R4: 0.416
c-Src kinase domain; [6]
  c-Src difference (mean log2 variant - mean log2 reference): -0.08063
c-Src kinase domain; [7]
  c-Src hit?: FALSE
Fes; mean of log2 of enrichment over R1-R6
  Fes mean of log2(enrichment): -0.2803
Fes; [6]
  Fes difference (mean log2 variant - mean log2 reference): -0.2401
[1]
  4G10 (mean): 0.5753
FGFR3 kinase domain; [8]
  difference: -0.3951
FGFR3 kinase domain; [11]
  mean of log2(variant): -1.056
FGFR3 kinase domain; [12]
  var. mean: 0.4887
EPHB2 kinase domain; [8]
  difference: -0.2469
EPHB2 kinase domain; [9]
  mean of log2(variant): -1.144
EPHB2 kinase domain; [10]
  var. mean: 0.4818
